Entries after “also recorded” stand apart in the source; their conditions may differ. Where two headings read alike, the source gives them in different places.
Columns and labels:
[1] = tested on: citric acid induced cough response; test: Citric acid induced conscious cough model; assay type: in vivo, guinea pig; details: 2 h before citric acid aerosol (0.4 M); for Inhibition of cough response: 30 mg/kg i.p.; for Inhibition of cough compared to vehicle: coughs recorded 10 minutes
Procedure: Male Hartley guinea pigs (200–600 g, Harlan, UK) were acclimatized in cages (20–22°C, with a light/dark cycle of 12/12 hours) before beginning of the experiments and were maintained on an ad lib standard guinea pig pellet diet and water containing dietary amounts of ascorbic acid.
Cough was detected both by pressure change and by sound and recorded with a Buxco cough analyzer (Buxco, Wilmington, NC, USA) as described earlier. Guinea pigs were randomly assigned to various test groups and were treated with different doses of GRC 17536 or Dextromethorphan i.p. before tussive challenge. The Vehicle control group received only 0.5% methyl cellulose. Two hours after i.p. administration of vehicle or test compounds, animals were placed in individual whole body plethysmographs and were exposed to citric acid aerosol (0.4 M) and the incidences of cough were recorded for 10 minutes with the help of Buxco cough analyzer.
For in vitro experiments, data was analyzed using GraphPad Prism 3.0 (GraphPad Software Inc. San Diego, CA, USA). For in vivo experiment, data from the treatment groups were compared with the control group. Mean values were statistically analyzed by one-way analysis of variance (ANOVA) followed by the Dunnett's Multiple Comparisons Test to evaluate significant differences between groups.

[2] = target: T1, TRPA1 (Homo sapiens, UniProt O75762); test: Citric acid-induced Ca+2 influx in CCD19-Lu cells; assay type: cell-based; parameters: A549 cells have been reported to express endogenous TRPA1; host or cells: A549
T1 sequence (O75762 whole entry): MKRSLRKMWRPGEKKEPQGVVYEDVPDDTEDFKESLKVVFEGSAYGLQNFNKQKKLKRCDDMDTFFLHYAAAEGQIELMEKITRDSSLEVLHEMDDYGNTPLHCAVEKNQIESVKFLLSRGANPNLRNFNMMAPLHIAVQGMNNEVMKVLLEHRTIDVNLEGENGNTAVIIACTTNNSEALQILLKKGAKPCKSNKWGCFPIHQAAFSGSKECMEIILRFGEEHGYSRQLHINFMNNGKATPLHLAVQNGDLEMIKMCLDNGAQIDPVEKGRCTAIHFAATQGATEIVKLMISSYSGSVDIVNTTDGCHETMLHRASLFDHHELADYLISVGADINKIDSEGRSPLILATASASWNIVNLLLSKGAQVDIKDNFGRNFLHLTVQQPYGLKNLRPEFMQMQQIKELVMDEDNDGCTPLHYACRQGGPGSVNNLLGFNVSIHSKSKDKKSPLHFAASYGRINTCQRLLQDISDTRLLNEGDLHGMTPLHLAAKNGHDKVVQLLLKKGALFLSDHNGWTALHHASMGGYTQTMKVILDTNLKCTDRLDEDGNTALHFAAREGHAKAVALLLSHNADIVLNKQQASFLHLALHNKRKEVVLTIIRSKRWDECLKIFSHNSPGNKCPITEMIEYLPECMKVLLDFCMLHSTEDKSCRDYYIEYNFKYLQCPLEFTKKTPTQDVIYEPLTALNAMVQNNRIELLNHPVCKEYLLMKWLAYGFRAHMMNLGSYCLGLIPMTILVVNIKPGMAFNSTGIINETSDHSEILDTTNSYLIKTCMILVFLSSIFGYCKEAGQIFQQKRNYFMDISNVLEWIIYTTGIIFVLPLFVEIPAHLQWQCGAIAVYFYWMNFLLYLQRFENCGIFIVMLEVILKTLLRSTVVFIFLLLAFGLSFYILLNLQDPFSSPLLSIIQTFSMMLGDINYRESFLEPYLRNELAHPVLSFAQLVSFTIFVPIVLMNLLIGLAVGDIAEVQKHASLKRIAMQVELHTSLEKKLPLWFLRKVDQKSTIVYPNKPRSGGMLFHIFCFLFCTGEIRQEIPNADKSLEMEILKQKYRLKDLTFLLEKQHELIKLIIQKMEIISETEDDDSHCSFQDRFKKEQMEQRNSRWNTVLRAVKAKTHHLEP
Procedure: (§1) Human lung fibroblast cells, CCD19-Lu (ATCC CCL-210) were obtained from American Type Culture Collection (ATCC; Rockville, MD, USA) and cultured in MEM supplemented with 10% FBS. Human pulmonary alveolar epithelial cell line A549 (ATCC CCL-185) was also obtained from ATCC and maintained in DMEM F-12 supplemented with 10% FBS. Both the cell types were cultured at 37°C in humidified air containing 5% CO2. Chinese hamster ovary (CHO) cells stably expressing human TRPA1 (hTRPA1/CHO), TRPV1 (hTRPV1/CHO), TRPV3 (hTRPV3/CHO), TRPV4 (hTRPV4/CHO and TRPM8 (hTRPM8/CHO were generated in-house and maintained in DMEM F-12 supplemented with 10% FBS and G418.
(§2) Fluorimetric and radiometric Ca^+2 influx assay was performed as described earlier. GRC 17536, GRC 17770, compound 7 or GRC 6211 was added to the cells 15 minutes prior to addition of agonist. Citric acid stock solution (1 M) was prepared in dH2O. Subsequent dilutions were made in Ca^+2, Mg^+2 free PBS (pH 7.3). No significant change in pH was observed upto 10 mM citric acid. At 30 mM concentration of citric acid, the pH of the solution dropped to 5.5. TLR ligands - LPS (10 µg/ml, TLR4), loxoribine (10 µM, TLR7) and ssRNA40 (1 µg/ml, TLR8) were dissolved in media and added to the cells for 16–18 hours. TRP selectivity of GRC 17536 and compound 7 was performed for TRPV1, TRPV3, TRPV4 and TRPM8 using Capsaicin (1 µM), 2-APB (1 mM), 4α-PDD (30 µM) and Icilin (250 nM) respectively, as agonist.

[3] = target: T1, TRPA1; test: Citric acid-induced Ca+2 influx in A549 cells; assay type: cell-based; parameters: A549 cells have been reported to express endogenous TRPA1; host or cells: A549
Procedure: as §1, §2

[4] = target: T2, TRPM8 (Homo sapiens, UniProt Q7Z2W7); test: TRP selectivity, hTRPM8/CHO, Icilin as agonist; assay type: cell-based; details: agonist Icilin (250 nM)
T2 construct: expressed in transfected cells
T2 sequence (Q7Z2W7 whole entry): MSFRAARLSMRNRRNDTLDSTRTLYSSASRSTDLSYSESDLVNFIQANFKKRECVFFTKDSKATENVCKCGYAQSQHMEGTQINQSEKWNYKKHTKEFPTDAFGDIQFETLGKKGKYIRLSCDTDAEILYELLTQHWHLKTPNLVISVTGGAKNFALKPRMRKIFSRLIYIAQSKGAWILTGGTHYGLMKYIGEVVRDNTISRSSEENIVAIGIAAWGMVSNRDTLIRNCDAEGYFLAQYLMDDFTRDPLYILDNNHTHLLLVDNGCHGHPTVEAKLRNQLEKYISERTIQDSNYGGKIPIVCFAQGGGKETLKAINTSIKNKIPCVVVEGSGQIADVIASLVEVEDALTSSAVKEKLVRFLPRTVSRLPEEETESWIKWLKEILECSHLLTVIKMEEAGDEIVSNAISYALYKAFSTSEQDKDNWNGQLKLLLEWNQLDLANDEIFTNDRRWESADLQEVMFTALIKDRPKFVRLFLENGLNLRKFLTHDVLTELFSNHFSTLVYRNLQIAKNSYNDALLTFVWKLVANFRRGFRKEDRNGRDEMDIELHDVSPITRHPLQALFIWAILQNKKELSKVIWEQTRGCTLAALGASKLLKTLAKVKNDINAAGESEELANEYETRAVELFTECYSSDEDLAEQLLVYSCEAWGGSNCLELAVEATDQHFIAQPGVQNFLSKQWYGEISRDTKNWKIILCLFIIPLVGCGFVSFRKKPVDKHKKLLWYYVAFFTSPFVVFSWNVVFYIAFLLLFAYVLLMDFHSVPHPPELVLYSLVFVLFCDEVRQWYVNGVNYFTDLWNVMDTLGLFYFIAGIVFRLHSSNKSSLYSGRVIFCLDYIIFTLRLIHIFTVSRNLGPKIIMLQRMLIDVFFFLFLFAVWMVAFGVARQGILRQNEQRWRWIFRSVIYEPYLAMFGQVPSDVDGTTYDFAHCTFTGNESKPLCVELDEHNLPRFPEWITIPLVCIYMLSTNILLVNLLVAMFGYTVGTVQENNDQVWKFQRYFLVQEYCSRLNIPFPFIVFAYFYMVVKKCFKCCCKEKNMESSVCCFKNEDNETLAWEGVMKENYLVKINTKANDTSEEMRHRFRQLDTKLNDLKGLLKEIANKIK
Procedure: as §1
as §2, with “TRP selectivity of GRC 17536 and compound 7 was performed for TRPV1, TRPV3, TRPV4 and TRPM8 using Capsaicin (1 µM), 2-APB (1 mM), 4α-PDD (30 µM) and Icilin (250 nM) respectively, as agonist.” left out

[5] = target: T1, TRPA1; parameters: A549 cells have been reported to express endogenous TRPA1; host or cells: A549; method as in PMID 21848366; details: A549 cells; read-out: IC50 with AITC as agonist; cited from earlier work
[6] = target: T3, TRPV1 (Homo sapiens, UniProt Q8NER1); test: TRP selectivity, hTRPV1/CHO, Capsaicin as agonist; assay type: cell-based; details: agonist Capsaicin (1 µM)
T3 construct: expressed in transfected cells
T3 sequence (Q8NER1 whole entry): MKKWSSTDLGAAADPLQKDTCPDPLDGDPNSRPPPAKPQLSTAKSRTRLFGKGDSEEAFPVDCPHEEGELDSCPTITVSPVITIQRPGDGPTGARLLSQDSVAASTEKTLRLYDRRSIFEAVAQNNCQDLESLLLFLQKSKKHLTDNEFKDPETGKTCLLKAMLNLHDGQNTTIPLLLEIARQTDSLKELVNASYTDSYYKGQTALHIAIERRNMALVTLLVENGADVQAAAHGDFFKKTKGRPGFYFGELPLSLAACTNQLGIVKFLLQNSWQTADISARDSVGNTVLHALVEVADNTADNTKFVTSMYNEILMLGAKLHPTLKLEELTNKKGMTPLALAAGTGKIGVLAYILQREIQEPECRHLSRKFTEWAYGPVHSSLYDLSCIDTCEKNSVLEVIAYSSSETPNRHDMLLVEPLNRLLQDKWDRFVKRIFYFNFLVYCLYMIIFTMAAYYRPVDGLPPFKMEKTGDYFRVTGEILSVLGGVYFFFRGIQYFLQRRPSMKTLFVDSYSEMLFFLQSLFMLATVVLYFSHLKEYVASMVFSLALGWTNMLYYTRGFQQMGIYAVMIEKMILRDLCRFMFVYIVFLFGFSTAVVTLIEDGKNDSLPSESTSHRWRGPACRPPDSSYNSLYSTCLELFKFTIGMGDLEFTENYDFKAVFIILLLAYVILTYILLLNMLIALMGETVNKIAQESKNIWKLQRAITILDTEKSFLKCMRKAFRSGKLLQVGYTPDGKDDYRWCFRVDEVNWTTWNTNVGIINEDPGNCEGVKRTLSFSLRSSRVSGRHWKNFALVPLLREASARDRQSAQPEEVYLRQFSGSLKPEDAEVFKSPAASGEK
Procedure: as §1
as §2, with “TRP selectivity of GRC 17536 and compound 7 was performed for TRPV1, TRPV3, TRPV4 and TRPM8 using Capsaicin (1 µM), 2-APB (1 mM), 4α-PDD (30 µM) and Icilin (250 nM) respectively, as agonist.” left out

[7] = target: T1, TRPA1; test: Citric acid-induced Ca+2 influx in hTRPA1/CHO cells; assay type: cell-based; parameters: expressed in transfected cells
Procedure: as §1, §2

[8] = target: T4, TRPV3 (Homo sapiens, UniProt Q8NET8); test: TRP selectivity, hTRPV3/CHO, 2-APB as agonist; assay type: cell-based; details: agonist 2-APB (1 mM)
T4 construct: expressed in transfected cells
T4 sequence (Q8NET8 1-790): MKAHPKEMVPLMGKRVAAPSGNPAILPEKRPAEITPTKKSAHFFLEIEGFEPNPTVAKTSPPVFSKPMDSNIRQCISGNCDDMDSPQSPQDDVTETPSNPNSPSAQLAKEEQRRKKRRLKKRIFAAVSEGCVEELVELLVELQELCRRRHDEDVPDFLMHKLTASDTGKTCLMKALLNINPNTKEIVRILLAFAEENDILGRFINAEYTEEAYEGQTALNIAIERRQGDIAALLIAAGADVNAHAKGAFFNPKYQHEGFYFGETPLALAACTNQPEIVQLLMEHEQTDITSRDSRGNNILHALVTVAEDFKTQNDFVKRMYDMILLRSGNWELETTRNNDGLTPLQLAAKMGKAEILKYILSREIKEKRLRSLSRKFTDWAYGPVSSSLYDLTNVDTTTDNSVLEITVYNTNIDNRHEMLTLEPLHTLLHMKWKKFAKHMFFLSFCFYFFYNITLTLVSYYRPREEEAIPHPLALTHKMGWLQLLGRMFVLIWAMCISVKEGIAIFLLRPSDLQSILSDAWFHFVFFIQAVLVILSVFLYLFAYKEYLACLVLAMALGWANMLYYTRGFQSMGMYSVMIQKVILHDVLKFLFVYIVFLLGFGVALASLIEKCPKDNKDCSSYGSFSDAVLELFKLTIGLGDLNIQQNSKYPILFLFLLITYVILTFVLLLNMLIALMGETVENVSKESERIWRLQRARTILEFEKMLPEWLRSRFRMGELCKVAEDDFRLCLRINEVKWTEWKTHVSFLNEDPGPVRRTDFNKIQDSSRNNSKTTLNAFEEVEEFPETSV
Procedure: as §1
as §2, with “TRP selectivity of GRC 17536 and compound 7 was performed for TRPV1, TRPV3, TRPV4 and TRPM8 using Capsaicin (1 µM), 2-APB (1 mM), 4α-PDD (30 µM) and Icilin (250 nM) respectively, as agonist.” left out

[9] = target: T1, TRPA1; test: TLR ligand-enhanced 45Ca+2 uptake in hTRPA1/CHO cells; assay type: cell-based; parameters: expressed in transfected cells
Procedure: as §1, §2

[10] = target: T1, TRPA1; parameters: method as in PMID 21848366; details: CCD19-Lu cells; read-out: IC50 with AITC as agonist; cited from earlier work
[11] = target: T5, TRPV4 (Homo sapiens, UniProt Q9HBA0); test: TRP selectivity, hTRPV4/CHO, 4α-PDD as agonist; assay type: cell-based; details: agonist 4α-PDD (30 µM)
T5 construct: expressed in transfected cells
T5 sequence (Q9HBA0 whole entry): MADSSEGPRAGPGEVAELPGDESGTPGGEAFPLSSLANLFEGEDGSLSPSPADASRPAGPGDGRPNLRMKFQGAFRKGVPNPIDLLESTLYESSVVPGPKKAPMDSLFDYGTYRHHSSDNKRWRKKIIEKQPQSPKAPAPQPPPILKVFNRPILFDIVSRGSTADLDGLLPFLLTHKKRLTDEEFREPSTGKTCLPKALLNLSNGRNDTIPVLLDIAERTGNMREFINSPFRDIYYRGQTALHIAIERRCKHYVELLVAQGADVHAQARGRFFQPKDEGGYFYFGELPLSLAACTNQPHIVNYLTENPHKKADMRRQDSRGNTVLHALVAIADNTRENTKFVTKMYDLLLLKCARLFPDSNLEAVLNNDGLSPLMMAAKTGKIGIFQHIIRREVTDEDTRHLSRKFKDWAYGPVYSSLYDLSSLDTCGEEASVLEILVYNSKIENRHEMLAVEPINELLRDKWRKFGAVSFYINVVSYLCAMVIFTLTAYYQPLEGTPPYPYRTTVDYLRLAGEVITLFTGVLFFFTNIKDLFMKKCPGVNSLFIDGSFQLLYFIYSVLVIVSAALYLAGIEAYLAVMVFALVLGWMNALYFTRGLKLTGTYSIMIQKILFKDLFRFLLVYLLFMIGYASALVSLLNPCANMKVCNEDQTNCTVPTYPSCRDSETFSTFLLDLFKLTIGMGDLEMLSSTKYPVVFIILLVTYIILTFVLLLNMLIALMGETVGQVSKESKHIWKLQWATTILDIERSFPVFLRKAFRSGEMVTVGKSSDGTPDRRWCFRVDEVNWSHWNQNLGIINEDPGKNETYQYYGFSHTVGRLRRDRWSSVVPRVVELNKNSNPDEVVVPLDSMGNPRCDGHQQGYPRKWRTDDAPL
Procedure: as §1
as §2, with “TRP selectivity of GRC 17536 and compound 7 was performed for TRPV1, TRPV3, TRPV4 and TRPM8 using Capsaicin (1 µM), 2-APB (1 mM), 4α-PDD (30 µM) and Icilin (250 nM) respectively, as agonist.” left out

[12] = Plasma concentration in the cough model; assay type: in vivo; details: at the EDmax dose (∼89% suppression of cough), guinea pig, i.p.
[13] = target: T1, TRPA1; test: TLR ligand-enhanced 45Ca+2 uptake in A549 cells; assay type: cell-based; parameters: A549 cells have been reported to express endogenous TRPA1; host or cells: A549
Procedure: as §1, §2

[14] = tested on: TRPA1 mRNA; test: Real-time RT-PCR of TRPA1 mRNA in hTRPA1/CHO cells; assay type: cell-based, human; details: pre-incubation with TLR ligand
Procedure: Total RNA was extracted from hTRPA1/CHO cells using TRI reagent (Sigma, St. Louise, MO, USA). 3 µg of RNA was reverse transcribed using iScript select cDNA synthesis kit (Biorad Hercules, CA, USA) according to the manufacturer's instructions to produce single-stranded cDNA. RT-PCR was performed with an real-time thermal cycler Eppendorf Mastercycler Ep (Eppendorf AG, Hamburg, Germany) using iTaq SYBR Green Supermix with ROX kit (Biorad Hercules, CA, USA) with human TRPA1 specific primers: 5′-[…]-3′(sense primer) and 5′-CTTTTATGTCTACTTG GGCACCTT-3′(antisense primer). RT-PCR reaction was carried out for 40 cycles at 94°C for 30 s, 60°C for 15 s and 60°C for 60 s. Data was interpreted using 2^(-ΔΔCT) Livak method of analysis.

[15] = target: T3, TRPV1; test: Citric acid effect on Ca+2 influx in hTRPV1/CHO cells; assay type: cell-based; details: data not shown
Procedure: as §1
as §2, with “TRP selectivity of GRC 17536 and compound 7 was performed for TRPV1, TRPV3, TRPV4 and TRPM8 using Capsaicin (1 µM), 2-APB (1 mM), 4α-PDD (30 µM) and Icilin (250 nM) respectively, as agonist.” left out

[16] = antagonist added 15 minutes prior to agonist, read-out: IC50, inhibition of citric acid induced Ca+2 influx
[17] = highest concentration of inducer, one range printed for CCD19-Lu and A549 together

## COc1ccc2c(c1)[C@]13CCCC[C@@H]1[C@H](C2)N(C)CC3 [Dextromethorphan, reference compound]
[1]
  Inhibition of cough response: 66%

## O=C(Nc1cccc2cnccc12)N[C@@H]1CC2(CCC2)Oc2ccc(F)cc21 [GRC 6211]
[2]; up to 10 µM antagonist
  Inhibition of citric acid induced increase in Ca+2: failed to inhibit
[3]; up to 10 µM antagonist
  Inhibition of citric acid induced increase in Ca+2: failed to inhibit

## Cn1c(=O)c2c(CC(=O)Nc3nc(-c4ccc(F)c(C(F)(F)F)c4F)cs3)csc2n(C)c1=O [GRC 17536]
[4]
  % Inhibition at 1 µM, TRPM8: 8.6%
[5]
  IC50: 2.06 nM
[6]
  % Inhibition at 1 µM, TRPV1: 5.6%
[1]
  Inhibition of cough response: no significant protective response
[1]; 60 mg/kg i.p.
  Inhibition of cough compared to vehicle: 79%
[1]; 100 mg/kg i.p.
  Inhibition of cough compared to vehicle: 89%
[2]; [16]
  IC50: 8.2 nM
[7]; [16]
  IC50: 4.6 nM
[8]
  % Inhibition at 1 µM, TRPV3: 27.3%
[3]; [16]
  IC50: 5 nM
[9]; hTRPA1/CHO, 10 nM
  Inhibition of LPS + AITC induced 45Ca+2 uptake: 51.3%
  Inhibition of Loxoribine + AITC induced 45Ca+2 uptake: 56.6%
  Inhibition of ssRNA40 + AITC induced 45Ca+2 uptake: 63.0%
[9]; hTRPA1/CHO, 10 nM, stated for both cell types
  Inhibition of TLR ligand-enhanced 45Ca+2 uptake (summary): ~50%
[9]; hTRPA1/CHO, 1 µM
  Inhibition of 45Ca+2 uptake at the highest concentration (summary): Complete inhibition
  Inhibition of LPS + AITC induced 45Ca+2 uptake: 98.4%
  Inhibition of Loxoribine + AITC induced 45Ca+2 uptake: 98.6%
  Inhibition of ssRNA40 + AITC induced 45Ca+2 uptake: 96.1%
[10]
  IC50: 2.71 nM
[11]
  % Inhibition at 1 µM, TRPV4: 8.2%
[12]
  Free mean plasma concentration: around its in vitro IC50 value
[13]; A549, 10 nM
  Inhibition of LPS + AITC induced 45Ca+2 uptake: 40.4%
  Inhibition of Loxoribine + AITC induced 45Ca+2 uptake: 68.1%
  Inhibition of ssRNA40 + AITC induced 45Ca+2 uptake: 53.2%
[13]; A549, 10 nM, stated for both cell types
  Inhibition of TLR ligand-enhanced 45Ca+2 uptake (summary): ~50%
[13]; A549, 1 µM
  Inhibition of 45Ca+2 uptake at the highest concentration (summary): Complete inhibition
  Inhibition of LPS + AITC induced 45Ca+2 uptake: 95.3%
  Inhibition of Loxoribine + AITC induced 45Ca+2 uptake: 97.4%
  Inhibition of ssRNA40 + AITC induced 45Ca+2 uptake: 98.7%

## C=CCn1c(=O)n([C@@H]2O[C@H](CO)[C@@H](O)[C@H]2O)c2nc(N)[nH]c(=O)c21 [Loxoribine, reference compound]
[14]
  TRPA1 mRNA levels compared to control: enhance TRPA1 expression
[9]; hTRPA1/CHO, pre-treatment Loxoribine 10 µM or ssRNA40 1 µg/ml, 16-18 hours
  Increase in 45Ca+2 uptake over AITC alone: 20%
[9]; ligand alone, no TRPA1 agonist, 'these cells', data not shown
  Increase in 45Ca+2 uptake by TLR ligand alone: did not show any increase
[13]; A549 cells, TLR ligand pre-treatment 16-18 hours
  Enhancement of AITC mediated 45Ca+2 uptake: 30%

## O=C(O)CC(O)(CC(=O)O)C(=O)O [citric acid]
[15]
  Ca+2 influx response to citric acid: lack of any significant response; also recorded: did not observe any increase
[2]
  Citric acid concentration of maximum Ca+2 influx: 10 mM
  Citric acid concentration that elicited a drop in Ca+2 influx: 30 mM
[2]; [17]
  Induction of Ca+2 influx over basal: 4–20 fold
[7]
  Citric acid concentration of peak Ca+2 influx: 3 mM
  Citric acid concentration that elicited a drop in Ca+2 influx: 10 mM
[7]; highest concentration of citric acid
  Ca+2 influx over basal: ~40 fold
[3]
  Citric acid concentration of peak Ca+2 influx: 3 mM
  Citric acid concentration that elicited a drop in Ca+2 influx: 5 mM
[3]; [17]
  Induction of Ca+2 influx over basal: 4–20 fold

Source: publication PMC4018403, “Transient Receptor Potential Ankyrin 1 Receptor Activation In Vitro and In Vivo by Pro-tussive Agents: GRC 17536 as a Promising Anti-Tussive Therapeutic” (PLoS ONE, 2014)
